Experimental data reported in publication PMC6355826 (EBioMedicine, 2018).

Key:
[1] = molecular target: T1, methionine adenosyltransferase 2A (MAT2A) (Homo sapiens, UniProt P31153); assay: HPLC SAM synthesis assay with purified MAT2A; format: biochemical
[2] = molecular target: T1, methionine adenosyltransferase 2A (MAT2A); assay: microscale thermophoresis; format: binding

T1 sequence (P31153 whole entry): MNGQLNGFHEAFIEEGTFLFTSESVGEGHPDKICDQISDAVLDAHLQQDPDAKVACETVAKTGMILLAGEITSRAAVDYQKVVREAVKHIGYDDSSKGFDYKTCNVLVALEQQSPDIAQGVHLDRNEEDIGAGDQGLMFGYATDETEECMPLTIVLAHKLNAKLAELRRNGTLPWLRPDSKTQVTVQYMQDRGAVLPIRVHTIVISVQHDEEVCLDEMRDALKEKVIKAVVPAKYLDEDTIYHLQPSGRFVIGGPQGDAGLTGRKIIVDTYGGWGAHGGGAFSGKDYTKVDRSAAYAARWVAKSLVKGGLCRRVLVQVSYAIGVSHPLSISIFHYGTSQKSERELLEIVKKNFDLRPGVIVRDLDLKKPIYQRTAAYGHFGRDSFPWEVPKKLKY

Row | SMILES | HPLC SAM synthesis assay with purified MAT2A [1] | Kd [2]
1 | Nc1ncnc2c1ncn2[C@@H]1O[C@H](COP(=O)(O)OP(=O)(O)OP(=O)(O)O)[C@@H](O)[C@H]1O [ATP] | MAT2A was incubated with its substrates which were methionine and ATP, and SAM was formed | –
2 | CC(=O)O[C@@H]1CC[C@@]2(C)[C@@H](CC[C@]3(C)[C@@H]2C(=O)C=C2[C@@H]4[C@@H](C)[C@H](C)CC[C@]4(C)CC[C@]23C)[C@@]1(C)C(=O)O [compound 1, AKBA] | – | 0.129 ± 0.028 µM
3 | CSCC[C@H](N)C(=O)O [methionine] | MAT2A was incubated with its substrates which were methionine and ATP, and SAM was formed | –
